Data as given in US12551418B2, “Cosmetic containing ultraviolet wavelength converting substance and medicinal agent” (Shiseido Company, Ltd., priority 2019, dated 2026).

Key:
Human dermal fibroblasts [1] = assay: Influence of C-phycocyanin concentration and UV intensity on cell activity (Example 2); type: cell-based; settings: UV 0-100 mJ/cm^2
Protocol: (§1) A cell sample was prepared as follows: • 1. Human dermal fibroblasts and human skin keratinocytes purchased from Kurabo Industries Ltd. were used. A cell suspension (1 mL) stored in liquid nitrogen was thawed in a water bath (37° C.) to an extent that small ice pellets remained, and then diluted with 9 mL of warm medium. • 2. The diluted suspension was mixed gently and then transferred to a T75 flask and incubated overnight at 37° C. • 3. The next day, the medium was replaced with 10 mL of fresh medium. • 4. The medium was replaced periodically (once every 2 days for fibroblasts and once every 2 to 3 days for keratinocytes) and cell proliferation was continued. Meanwhile, the cells were observed using a microscope, and it was confirmed that the cells grew in the correct form. • 5. After the cells reached about 80% confluence, the cells were passaged. The cells were passaged by washing the cells once with 10 mL of warm PBS, adding 5 mL of warm trypsin to a T75 flask, covering the bottom of the flask with a trypsin solution, followed by aspirating at room temperature for 1 minute. • 6. The flask was allowed to stand in an oven at 37° C. for (maximum) 2 minutes for fibroblasts and (maximum) 7 minutes for keratinocytes. The cells were observed using a microscope and confirmed to be small and oval. • 7. Thereafter, the side of the T75 flask was lightly tapped to release the cells. […]

Human dermal fibroblasts [2] = assay: Restoration of cell activity decreased by UV irradiation (Example 3); type: cell-based; settings: cells pre-irradiated 400 mJ/cm^2 without substance, then UV 0-200 mJ/cm^2 through 0.4% or 2% C-phycocyanin
Protocol: as §1

In the case of C-phycocyanin, the “cell activity (relative fluorescence intensity, AlamarBlue)” value (Human dermal fibroblasts [1]; 0.4% C-phycocyanin solution plate) is reported as “the decrease in cell activity was inhibited”, the “cell activity (relative fluorescence intensity, AlamarBlue)” value (Human dermal fibroblasts [1]; 2% C-phycocyanin solution plate, compared to no UV irradiation) is reported as “the cell activity was even enhanced” and the “cell activity (relative fluorescence intensity, AlamarBlue)” value (Human dermal fibroblasts [2]) is reported as “cell activity was recovered”.
